Key:
[1] = target: T1, OR11A1 (Homo sapiens, UniProt Q9GZK7); experiment: CRE-luciferase reporter assay in HEKOlf cells transiently transfected with OR11A1; type: cell-based
T1 construct: expressed in transfected cells; host or cells: HEKOlf (HEK293 stably expressing human Galpha-olf and bovine CNGA2)
T1 sequence (Q9GZK7 1-315): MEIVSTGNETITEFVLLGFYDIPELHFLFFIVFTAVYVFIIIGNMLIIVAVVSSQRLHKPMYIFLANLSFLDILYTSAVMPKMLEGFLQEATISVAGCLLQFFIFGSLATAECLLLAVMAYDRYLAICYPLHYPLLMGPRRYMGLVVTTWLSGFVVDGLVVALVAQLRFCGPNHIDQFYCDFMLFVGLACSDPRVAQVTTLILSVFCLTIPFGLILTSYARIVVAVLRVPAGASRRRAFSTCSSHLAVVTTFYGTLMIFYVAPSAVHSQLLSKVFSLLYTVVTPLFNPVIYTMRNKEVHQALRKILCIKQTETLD
Method: (§1) The experiments were performed using a HEK293 cell line (deposited at the ATCC under accession n° CRL-1573) stably expressing the Gαolf G-protein and the cyclic nucleotide gated ion channel A2 subunit (CNGA2) (herein called HEKOlf). As described by Shirokova et al., 2005, the human Gαolf cDNA was cloned into the mammalian expression vector pPuro and cDNA for the bovine cyclic nucleotide gated ion channel A2 (CNGA2) subunit was cloned into the mammalian expression vector pcDNA3. Both constructs were transfected using Lipofectamine2000 (Invitrogen) following the manufacturer's instructions. Cellular clones stably expressing Gαolf and CNGA2 were obtained by antibiotic selection with 0.5µg/ml Puromycin and 200µg/ml Geneticin.
All odorants were stored in the dark at 4°C upon delivery. They were prepared at 100mM stock solutions using DMSO as a solvent and stored at -20°C. On the day of the experiment the different stock solutions were directly diluted in the assay buffer (Tyrode's buffer) having the following composition: 5mM KCI, 130mM NaCl, 2mM CaCl2, 5mM NaHCO3, 1mM MgCl2, 20mM HEPES, pH7.4.
(§2) All transient transfections were performed with Lipofectamine 2000 (Invitrogen) according to the manufacturer's protocol. 10µl Lipofectamine 2000 were diluted in 500 µl DMEM and incubated for 5 minutes at room temperature. At the same time, 3µg of plasmid DNA were diluted in 500µl DMEM and added to the Lipofectamine 2000 mix to obtain a final volume of 1000µl. After incubation for a further 30 minutes at room temperature, the DNA-Lipofectamine complex was added to 1000µl of a cell suspension containing 1.600.000 cells/ml. Subsequently, 25µl per well of the complete mixture were seeded in black 384 well polystyrene assay plates. 25µl DMEM containing 20% FBS were added to each well 3 hours post-transfection.
(§3) The cDNAs for all olfactory receptors and an empty control vector were co-transfected with pGL4.29 (Promega). The pGL4.29 vector contains a cyclic adenosine monophosphate (cAMP) response element (CRE) that drives the transcription of the luciferase reporter gene luc2P (Photinus pyralis). luc2P is a synthetically-derived luciferase sequence with humanized codon optimization that is designed for high expression and reduced anomalous transcription.
In this assay, the interaction of an odorant with its cognate olfactory receptor leads to the activation of the human Gαolf G-protein. Gαolf is a stimulatory G-protein (Gαs) and activates adenylate cyclase, which converts adenosine triphosphate (ATP) into cAMP. Therefore, the activity of the transcribed luciferase can be used as an indication of olfactory receptor activation. 24 hours post-transfection the medium was removed from the transfected cells and 30 µl Tyrode's buffer containing the diluted odorants were added and incubated for 6 hours at 37°C. The cells were then transferred into an automated fluorometric imaging plate reader (FLIPR^TETRA, Molecular Devices). Subsequently, 25µl of a mixture composed of Triton X-100 and luciferin (1:1) were added. The addition of this mixture led to cell lyses and allowed interaction of the luciferase with its substrate luciferin resulting in a detectable emission of light.
The data obtained from different well replicates were analyzed with Excel, ScreenWorks, and SigmaPlot 10. The responses of each receptor to the odorants were divided by the mean responses of the receptor towards Tyrode's buffer (fold of change FOC1). The specificity of FOC1 was checked by comparing with a second FOC (FOC2) obtained by stimulating a control sample, consisting in an empty expression vector, with the same odorants and Tyrode's buffer. The mean and standard deviation of the resulting fold of change values were calculated and plotted in vertical bar charts or concentration-response curves fitted by the SigmaPlot 10 software.

[2] = tested on: seven other OR11A1-related olfactory receptors; experiment: CRE-luciferase reporter assay on OR11A1 related receptors; type: cell-based, human; settings: 10/30/100 µM
Method: as §1, §2, §3
In this assay, the interaction of an odorant with its cognate olfactory receptor leads to the activation of the human Gαolf G-protein. Gαolf is a stimulatory G-protein (Gαs) and activates adenylate cyclase, which converts adenosine triphosphate (ATP) into cAMP. Therefore, the activity of the transcribed luciferase can be used as an indication of olfactory receptor activation. […] The cells were then transferred into an automated fluorometric imaging plate reader (FLIPR^TETRA, Molecular Devices). […]
The data obtained from different well replicates were analyzed with Excel, ScreenWorks, and SigmaPlot 10. […] The mean and standard deviation of the resulting fold of change values were calculated and plotted in vertical bar charts or concentration-response curves fitted by the SigmaPlot 10 software. […]

In the case of `C[C@H]1CC[C@@]2(O)C(C)(C)[C@@H]3CC[C@@]2(C)[C@H]1C3` [Patchouli alcohol], the “activation of OR11A1” value ([1]; Example 3, 10/30/100 µM) is reported as “strongly activated”, the EC50 ([1]; Example 4, Table 5, 0.03-100 µM tested) is reported as 12.1 ± 1.7 µM and the “Potency and efficacy on OR11A1 (comparison between odorants)” value ([1]; Example 4, 0.1 to 100 µM (Figure 6)) is reported as “comparable”. The “activation of OR11A1” value ([1]; Example 4, 3, 10 and 30 µM (Figure 5)) was “activated”, the fold of change ([2]; Example 3, figure 4) was “around 1” and the “response of seven other OR11A1-related olfactory receptors” value ([2]; Example 3) was “none of the seven other OR11A1-related olfactory receptors responded”.
